Test results from patent US4359458A, “O-β. -D (and O-α.. -D) Multigalactopyranosyl, xylopyranosyl and glucopyranosyl sulfate salts” (American Cyanamid Company, priority 1981, dated 1982).
Structures can show the parent of a compound that is named as a salt. Where two headings read alike, the source gives them in different places.

How the values were obtained:
[1] = system: total hemolytic complement activity; conditions: both in vitro and in vivo; judged by reduction in total hemolytic complement activity; cited from earlier work
activated human C1 = activated human C1 (Homo sapiens, UniProt P09871); experiment: Test Code 026 (C1 inhibitor); assay type: biochemical; conditions: serial dilution assay, twofold dilutions; higher well number indicates higher activity
Description: (§1) An active inhibitor protects C2 from C1 and C4; (ii) Test Code 035 (C3-C9 inhibitor)--This test determines the ability of the late components of human complement (C3-C9) to lyse EAC 142 in the presence of appropriate dilutions of the test compound. An active inhibitor protects EAC 142 from lysis by human C3-C9; (iii) Test Code 036 (C-Shunt inhibitor)--In this test human erythrocytes rendered fragile are lysed in autologous serum via the shunt pathway activated by cobra venom factor in the presence of appropriate dilutions of the test compound. Inhibition of the shunt pathway results in failure of lysis; (iv) Cap 50 Test--Here, appropriate amounts of the test compound are added to a pool of guinea pig serum in vitro, after which the undiluted serum capillary tube assay of U.S. Pat. No. 3,876,376 is run. The concentration of compound inhibiting 50% is reported; and (v) Guinea Pig Intraperitoneal Test (GPIP)--Guinea pigs weighing about 300 g are dosed intraperitoneally (i.p.) with 200 mg/kg of the test compound dissolved in saline and adjusted to pH 7-8. Approximately 0.4 ml blood samples, taken by orbital sinus puncture 30 minutes and one hour after injections, are collected directly into centrifuge tubes; 5 ml blood samples, taken by decapitation 2 hours after injection are collected directly into beakers. The samples are allowed to clot, centrifuged, and the resultant sera are assayed for complement activity using the capillary complement assay. Percent inhibition is calculated by comparison with simultaneous controls. The results of the GPIP appear in Table I together with results of test code 026, 035, 036 and Cap 50.

[2] = system: shunt pathway activated by cobra venom factor; experiment: Test Code 036 (C-Shunt inhibitor); assay type: cell-based, human; conditions: serial dilution assay, twofold dilutions; higher well number indicates higher activity; N = Negative
Description: as §1

complement activity = experiment: Guinea Pig Intraperitoneal Test (GPIP); assay type: in vivo; conditions: Cavia porcellus, ip, 200 mg/kg i.p.
Description: as §1

[3] = system: late components of human complement (C3-C9); experiment: Test Code 035 (C3-C9 inhibitor); assay type: biochemical; conditions: serial dilution assay, twofold dilutions; higher well number indicates higher activity; N = Negative
Description: as §1

[4] = system: hereditary angioneurotic edema; conditions: literature reports; cited from earlier work
complement system = conditions: Br. J. Exp. Pathol. 33: 327 (1952); cited from earlier work

Row | Compound | Cl 026 Wells (activated human C1) [Wells] | C-Shunt Inhibition 036 Wells [2] | C-Late 035 Wells [3] | other results
1 | pentosanpolysulfoester | – | – | – | anticomplementary activity on human serum [1]: anticomplementary activity
2 | O=S(=O)(O)O[C@@H]1[C@@H](OS(=O)(=O)O)[C@@H](O[C@H]2O[C@H](CO[C@@H]3OC[C@@H](OS(=O)(=O)O)[C@H](OS(=O)(=O)O)[C@H]3OS(=O)(=O)O)[C@@H](OS(=O)(=O)O)[C@H](OS(=O)(=O)O)[C@H]2OS(=O)(=O)O)O[C@H](CO[C@@H]2OC[C@@H](OS(=O)(=O)O)[C@H](OS(=O)(=O)O)[C@H]2OS(=O)(=O)O)[C@H]1OS(=O)(=O)O [drawing 14, Xyl 1β,6 glc 1α,1α' glc 1β,6 xyl, dodecakis (H-sulfate), dodecasodium salt] | 11 | 4 Wells | – | inhibition at 200 mg/kg (complement activity; 0.5 h, serum 30 minutes after injection, read-out: In vivo activity (Guinea Pigs) % Inhibition Intraperitoneal, 30 minutes): 57%; inhibition at 200 mg/kg (complement activity; 1 h, serum 60 minutes after injection, read-out: In vivo activity (Guinea Pigs) % Inhibition Intraperitoneal, 60 minutes): 69%; inhibition at 200 mg/kg (complement activity; 2 h, serum 120 minutes after injection, read-out: In vivo activity (Guinea Pigs) % Inhibition Intraperitoneal, 120 minutes): 78%
3 | O=S(=O)(O)OC[C@H]1O[C@@H](OC[C@H]2O[C@H](O[C@H]3O[C@H](COS(=O)(=O)O)[C@@H](OS(=O)(=O)O)[C@H](OS(=O)(=O)O)[C@H]3OS(=O)(=O)O)[C@H](OS(=O)(=O)O)[C@@H](OS(=O)(=O)O)[C@@H]2OS(=O)(=O)O)[C@H](OS(=O)(=O)O)[C@@H](OS(=O)(=O)O)[C@@H]1O[C@H]1O[C@H](COS(=O)(=O)O)[C@@H](O[C@H]2O[C@H](COS(=O)(=O)O)[C@@H](O[C@H]3O[C@H](COS(=O)(=O)O)[C@@H](O[C@H]4O[C@H](COS(=O)(=O)O)[C@@H](O[C@H]5O[C@H](COS(=O)(=O)O)[C@@H](O[C@H]6O[C@H](COS(=O)(=O)O)[C@@H](OS(=O)(=O)O)[C@H](OS(=O)(=O)O)[C@H]6OS(=O)(=O)O)[C@H](OS(=O)(=O)O)[C@H]5OS(=O)(=O)O)[C@H](OS(=O)(=O)O)[C@H]4OS(=O)(=O)O)[C@H](OS(=O)(=O)O)[C@H]3OS(=O)(=O)O)[C@H](OS(=O)(=O)O)[C@H]2OS(=O)(=O)O)[C@H](OS(=O)(=O)O)[C@H]1OS(=O)(=O)O [drawing 25, Glc 1α,4 (glc 1α,4)5 glc 1β,6 glc 1α,1α'glc, nonacosakis (H-sulfate), nonacosasalt with trimethylamine] | 9 | 5 Wells | N | –
4 | NC[C@H]1CC[C@H](C(=O)O)CC1 [tranexamic acid] | – | – | – | treatment of hereditary angioneurotic edema [4]: used with success
5 | Nc1ccc2cc(S(=O)(=O)O)cc(O)c2c1N=Nc1ccc(NC(=O)Nc2ccc(N=Nc3c(N)ccc4cc(S(=O)(=O)O)cc(O)c34)c(S(=O)(=O)O)c2)cc1S(=O)(=O)O [chlorazol fast pink, 3,3'-ureylenebis [6-(2-amino-8-hydroxy-6-sulfo-1-naphthylazo)benzenesulfonic acid], tetrasodium salt] | – | – | – | anti-complementary effect (complement system): anti-complementary effect
6 | O=S(=O)(O)OC[C@H]1O[C@@H](OC[C@H]2O[C@H](O[C@H]3O[C@H](CO[C@@H]4O[C@H](COS(=O)(=O)O)[C@@H](O[C@H]5O[C@H](COS(=O)(=O)O)[C@@H](OS(=O)(=O)O)[C@H](OS(=O)(=O)O)[C@H]5OS(=O)(=O)O)[C@H](OS(=O)(=O)O)[C@H]4OS(=O)(=O)O)[C@@H](OS(=O)(=O)O)[C@H](OS(=O)(=O)O)[C@H]3OS(=O)(=O)O)[C@H](OS(=O)(=O)O)[C@@H](OS(=O)(=O)O)[C@@H]2OS(=O)(=O)O)[C@H](OS(=O)(=O)O)[C@@H](OS(=O)(=O)O)[C@@H]1O[C@H]1O[C@H](COS(=O)(=O)O)[C@@H](OS(=O)(=O)O)[C@H](OS(=O)(=O)O)[C@H]1OS(=O)(=O)O [drawing 15, Glc 1α,4 glc 1β,6 glc 1α,1α' glc 1β,6 glc 1α,4 glc, eicosakis (H-sulfate), eicosasalt with trimethylamine] | 5 | N | N | –
7 | heparin | – | – | – | anti-complementary effect (complement system): anti-complementary effect
8 | NCCCCCC(=O)O [epsilon-aminocaproic acid] | – | – | – | treatment of hereditary angioneurotic edema [4]: used with success
9 | O=S(=O)(O)OC[C@H]1O[C@@H](OC[C@H]2O[C@H](O[C@H]3O[C@H](CO[C@@H]4O[C@H](COS(=O)(=O)O)[C@@H](O[C@H]5O[C@H](COS(=O)(=O)O)[C@@H](O[C@H]6O[C@H](COS(=O)(=O)O)[C@@H](O[C@H]7O[C@H](COS(=O)(=O)O)[C@@H](O[C@H]8O[C@H](COS(=O)(=O)O)[C@@H](O[C@H]9O[C@H](COS(=O)(=O)O)[C@@H](O[C@H]%10O[C@H](COS(=O)(=O)O)[C@@H](OS(=O)(=O)O)[C@H](OS(=O)(=O)O)[C@H]%10OS(=O)(=O)O)[C@H](OS(=O)(=O)O)[C@H]9OS(=O)(=O)O)[C@H](OS(=O)(=O)O)[C@H]8OS(=O)(=O)O)[C@H](OS(=O)(=O)O)[C@H]7OS(=O)(=O)O)[C@H](OS(=O)(=O)O)[C@H]6OS(=O)(=O)O)[C@H](OS(=O)(=O)O)[C@H]5OS(=O)(=O)O)[C@H](OS(=O)(=O)O)[C@H]4OS(=O)(=O)O)[C@@H](OS(=O)(=O)O)[C@H](OS(=O)(=O)O)[C@H]3OS(=O)(=O)O)[C@H](OS(=O)(=O)O)[C@@H](OS(=O)(=O)O)[C@@H]2OS(=O)(=O)O)[C@H](OS(=O)(=O)O)[C@@H](OS(=O)(=O)O)[C@@H]1O[C@H]1O[C@H](COS(=O)(=O)O)[C@@H](O[C@H]2O[C@H](COS(=O)(=O)O)[C@@H](O[C@H]3O[C@H](COS(=O)(=O)O)[C@@H](O[C@H]4O[C@H](COS(=O)(=O)O)[C@@H](O[C@H]5O[C@H](COS(=O)(=O)O)[C@@H](O[C@H]6O[C@H](COS(=O)(=O)O)[C@@H](OS(=O)(=O)O)[C@H](OS(=O)(=O)O)[C@H]6OS(=O)(=O)O)[C@H](OS(=O)(=O)O)[C@H]5OS(=O)(=O)O)[C@H](OS(=O)(=O)O)[C@H]4OS(=O)(=O)O)[C@H](OS(=O)(=O)O)[C@H]3OS(=O)(=O)O)[C@H](OS(=O)(=O)O)[C@H]2OS(=O)(=O)O)[C@H](OS(=O)(=O)O)[C@H]1OS(=O)(=O)O [drawing 21, Glc 1α,4 (glc 1α,4)5 glc 1β,6 glc 1α,1α'glc 1β,6 glc (glc 1α,4)5 1α,4 glc, pentacontakis (H-sulfate), pentacontasalt with trimethylamine] | 10 | 5 Wells | N | –
